Like-named read-outs stand apart in the source and are kept apart here.
What was measured:
[1] = target: T1, porcine pancreatic elastase (PPE) (Sus scrofa, UniProt P00772); assay: Inactivation of porcine pancreatic elastase (PPE); type: biochemical
T1 construct: from tissue; host or cells: porcine pancreas (from the name)

[2] = target: T2, human leukocyte elastase (HLE) (Homo sapiens, UniProt P08246); assay: Inactivation of human leukocyte elastase (HLE); type: biochemical
T2 construct: from tissue; host or cells: human leukocytes (from the name)
T2 sequence (P08246 30-267): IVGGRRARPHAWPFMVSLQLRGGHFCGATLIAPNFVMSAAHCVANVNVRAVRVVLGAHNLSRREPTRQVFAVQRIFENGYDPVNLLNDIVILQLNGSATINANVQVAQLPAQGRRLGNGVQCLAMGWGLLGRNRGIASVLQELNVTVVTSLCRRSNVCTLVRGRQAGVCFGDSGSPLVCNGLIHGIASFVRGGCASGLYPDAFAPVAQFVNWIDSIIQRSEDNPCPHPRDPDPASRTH
Experimental: Inactivation rates of serine proteases by substituted isocoumarins were measured by the incubation method. An aliquot of inhibitor (25 or 50 μl) in Me2 SO was added to a buffered enzyme solution (0.01-2.3 μM) to initiate the inactivation. Aliquots (50 μl) were withdrawn at various intervals and the residual enzymatic activity was measured. Me2 SO concentration in the reaction mixture was 8-12% (v/v). 0.1 Hepes, 0.01M CaCl2, pH 7.5 buffer was utilized for trypsin and coagulation enzymes. 0.1M Hepes, 0.5M NaCl, pH 7.5 was utilized for other serine proteases. […] Peptide thioesters or peptide nitroanilides with appropriate sequence were used as substrates for various serine proteases. All peptide thioester hydrolysis rates were measured with assay mixtures containing 4,4'-dithiodipyridine (ε324 =19800M^-1 cm^-1 ; Grasetti & Murray, Arch. Biochem. Biophys. 119, pp 41-49 (1967)). Peptide 4-nitroanilide nitroanilide hydrolysis was measured at 410 nm (ε410 =8800M^-1 cm^-1 ; Erlanger et al., Arch. Biochem. Biophys. 95, pp 271-278 (1961)). First order inactivation rate constant (kobs) were obtained from plots of ln (vt /vo) vs time, and the correlation coefficients were greater than 0.98.
^a Inactivation rates were measured at 0.1M Hepes, 0.5 NaCl, pH 7.5,
8-12% Me2 SO and 25° C. by incubation method.
^a Inhibition rates were measured in 0.1M Hepes, 0.05M NaCl, pH 7.5
buffer, 8-9% Me2 SO and at 25° C.
^a Inhibition constants were in 0.1M Hepes, 0.5M NaCl, pH 7.5 buffer,
8-9% Me2 SO and at 25° C.
^a Inhibition rates were measured in 0.1M Hepes, 0.5M NaCl, 2.5%
Me2 SO, pH 7,5 and at 25° C.
^a Inhibition was measured in 0.1M Hepes, 0.5M NaCl, pH 7.5 buffer,
5-10% Me2 SO and at 25° C. Suc--Val--Pro--Phe--NA (0.48 mM)
was used as the substrate for chymotrypsin and cat G.
^a Inhibition rates were measured in 0.1M Hepes, 0.5M NaCl, pH 7.5

chymotrypsin = chymotrypsin (Bos taurus, UniProt P00766); assay: Inactivation of chymotrypsin; type: biochemical, bovine; conditions: read-out: kobs/[I]
cathepsin G = target: T3, cathepsin G (Homo sapiens, UniProt P08311); assay: Inactivation of cathepsin G; type: biochemical; conditions: pH 7.5; Table XII; 2.5% Me2SO, 25° C; [I] 8.7-87 μM; read-out: kobs/[I]
T3 construct: from tissue; host or cells: human leukocytes
T3 sequence (P08311 21-255): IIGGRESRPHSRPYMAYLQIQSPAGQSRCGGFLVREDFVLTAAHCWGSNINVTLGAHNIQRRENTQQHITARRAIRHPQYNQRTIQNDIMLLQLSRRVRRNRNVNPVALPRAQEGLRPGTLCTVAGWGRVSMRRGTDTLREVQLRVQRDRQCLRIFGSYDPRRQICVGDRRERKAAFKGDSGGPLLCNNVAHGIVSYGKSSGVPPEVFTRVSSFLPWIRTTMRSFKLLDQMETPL

[3] = pH 7.5, Table XII, 2.5% Me2SO, 25° C, [I] 0.7-1.9 μM, read-out: kobs/[I]
[4] = Table XVI, pH 7.5, 25° C, [I] 1.7-58 μM
[5] = Table XI, pH 7.5, 25° C, [I] 6.3-600 μM, per line, read-out: kobs/[I]
[6] = Table XI, pH 7.5, 25° C, [I] 1.4-6.6 μM, per line, read-out: kobs/[I]
[7] = Table XVI, pH 7.5, 25° C, [I] 0.07-710 μM, read-out: kobs/[I]

T1 sequence (P00772 27-266): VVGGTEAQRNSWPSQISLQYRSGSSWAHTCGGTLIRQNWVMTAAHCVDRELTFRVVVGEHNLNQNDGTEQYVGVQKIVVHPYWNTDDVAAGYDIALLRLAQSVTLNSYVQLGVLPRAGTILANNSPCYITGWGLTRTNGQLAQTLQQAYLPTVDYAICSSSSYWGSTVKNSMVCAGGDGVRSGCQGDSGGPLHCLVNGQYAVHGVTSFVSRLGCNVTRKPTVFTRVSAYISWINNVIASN

Structure (SMILES)	kinact/KI [1, 5] [M⁻¹ s⁻¹]	kinact/KI [2, 6] [M⁻¹ s⁻¹]	also measured
CCCOc1oc(=O)c2cc(NC(=O)Nc3ccccc3)ccc2c1Cl [7-phenylcarbamoylamino-4-chloro-3-propyloxyisocoumarin]	–	–	kinact/KI ([1]; pH 7.5, Table XII, 2.5% Me2SO, 25° C, [I] 34-56 μM, read-out: kobs/[I]): 520 M⁻¹ s⁻¹; kinact/KI [2, 3]: 143000 M⁻¹ s⁻¹; kinact/KI (chymotrypsin; pH 7.5, Table XII, 2.5% Me2SO, 25° C, [I] 3.4-70 μM): 6100 M⁻¹ s⁻¹
O=C(Nc1ccccc1)Nc1ccc2c(Cl)c(OCCBr)oc(=O)c2c1 [7-phenylcarbamoylamino-4-chloro-3-(2-bromoethoxy)isocoumarin]	–	–	kinact/KI ([1]; Table XVI, pH 7.5, 25° C, [I] 0.04-2.0 mM, read-out: kobs/[I]): 36 M⁻¹ s⁻¹; kinact/KI ([2]; pH 7.5, Table XVI, second order, equimolar inhibitor and enzyme, read-out: kobs/[I]): 1.2e+06 M⁻¹ s⁻¹; kinact/KI (chymotrypsin; [4]): 12 M⁻¹ s⁻¹
CNC(=O)Nc1ccc2c(Cl)c(OC)oc(=O)c2c1 [7-methylcarbamoylamino-4-chloro-3-methoxyisocoumarin]	1300	9460	–
COc1oc(=O)c2cc(NC(=O)c3ccccc3C(=O)O)ccc2c1Cl [7-(o-phthalyl)amino-4-chloro-3-methoxyisocoumarin]	2700	52000	–
COc1oc(=O)c2cc(NC(=O)CC(CC(=O)O)c3ccccc3)ccc2c1Cl (stereo not shown) [7-(3-phenylglutaryl)amino-4-chloro-3-methoxyisocoumarin]	3100	66000	–
O=C(CCc1ccccc1)Nc1ccc2c(Cl)c(OCCCBr)oc(=O)c2c1 [7-dihydrocinnamoylamino-4-chloro-3-(3-bromopropoxy)isocoumarin]	–	–	kinact/KI ([2]; pH 7.5, Table XVI, biphasic plot, read-out: kobs/[I] (biphasic, first value)): 35600 M⁻¹ s⁻¹; kinact/KI ([2]; pH 7.5, Table XVI, biphasic plot, read-out: kobs/[I] (biphasic, second value)): 9870 M⁻¹ s⁻¹; kinact/KI (chymotrypsin; [4]): 600 M⁻¹ s⁻¹
CCOC(=O)Nc1ccc2c(Cl)c(OC)oc(=O)c2c1 [7-EtOCONH-4-chloro-3-methoxyisocoumarin, 7-ethoxycarbonylamino-4-chloro-3-methoxyisocoumarin]	2000	47000	–
COC(=O)CCC(=O)Nc1ccc2c(Cl)c(OC)oc(=O)c2c1 [7-methoxysuccinylamino-4-chloro-3-methoxyisocoumarin]	2200	43000	–
CCCOc1oc(=O)c2cc(NC(=S)Nc3ccccc3)ccc2c1Cl [7-phenylthiocarbamoylamino-4-chloro-3-propyloxyisocoumarin]	–	–	kinact/KI [2, 3]: > 166000 M⁻¹ s⁻¹
CC(C)(C)OC(=O)N[C@H](Cc1ccccc1)C(=O)Nc1ccc2c(Cl)c(OCCCBr)oc(=O)c2c1 [7-(N-t-butyloxycarbonyl-D-phenylalanyl)amino-4-chloro-3-(3-bromopropoxy)isocoumarin]	–	–	kinact/KI [2, 7]: 1480 M⁻¹ s⁻¹; kinact/KI (chymotrypsin; [4]): 70 M⁻¹ s⁻¹
CCCOc1oc(=O)c2cc(NC(=O)CSC)ccc2c1Cl [7-[(2-thiomethyl)acetyl]amino-4-chloro-3-propyloxyisocoumarin]	–	–	kinact/KI [2, 3]: > 152000 M⁻¹ s⁻¹; kinact/KI (cathepsin G): 28 M⁻¹ s⁻¹
CCCOc1oc(=O)c2cc(NC(=O)[C@@H](NC(=O)OC(C)(C)C)C(C)C)ccc2c1Cl [7-(N-t-butyloxycarbonyl-valyl)amino-4-chloro-3-propyloxyisocoumarin]	–	–	kinact/KI [2, 3]: 64000 M⁻¹ s⁻¹; kinact/KI (cathepsin G): 17 M⁻¹ s⁻¹
CCOc1oc(=O)c2cc(NC(=S)Nc3ccccc3)ccc2c1Cl [7-phenylthiocarbamoylamino-4-chloro-3-ethoxyisocoumarin]	12000	–	–
CCNC(=O)Nc1ccc2c(Cl)c(OC)oc(=O)c2c1 [7-EtNHCONH-4-chloro-3-methoxyisocoumarin, 7-ethylcarbamoylamino-4-chloro-3-methoxyisocoumarin]	1700	–	–
COc1oc(=O)c2cc(N=C=O)ccc2c1Cl [7-NCO-4-chloro-3-methoxyisocoumarin, 7-isocyanato-4-chloro-3-methoxyisocoumarin]	–	–	kinact/KI ([1]; pH 7.5, read-out: kobs/[I]): 650 M⁻¹ s⁻¹; kinact/KI ([2]; pH 7.5, read-out: kobs/[I]): 9200 M⁻¹ s⁻¹
CCCOc1oc(=O)c2cc(NC(=O)c3cccc([N+](=O)[O-])c3)ccc2c1Cl [7-(m-nitrobenzoyl)amino-4-chloro-3-propyloxyisocoumarin]	–	–	kinact/KI [2, 3]: > 210000 M⁻¹ s⁻¹; kinact/KI (cathepsin G): 4 M⁻¹ s⁻¹
COc1oc(=O)c2cc(NC(=O)Oc3ccccc3)ccc2c1Cl [7-PhOCONH-4-chloro-3-methoxyisocoumarin, 7-phenoxycarbonylamino-4-chloro-3-methoxyisocoumarin]	–	–	kinact/KI ([1]; pH 7.5, read-out: kobs/[I]): 850 M⁻¹ s⁻¹; kinact/KI ([2]; pH 7.5, read-out: kobs/[I]): 13000 M⁻¹ s⁻¹
CCCOc1oc(=O)c2cc(NC(=S)NCc3ccccc3)ccc2c1Cl [7-benzylthiocarbamoylamino-4-chloro-3-propyloxyisocoumarin]	–	–	kinact/KI [2, 3]: > 131000 M⁻¹ s⁻¹
COc1oc(=O)c2cc(NC(=O)NC(C)C)ccc2c1Cl [7-isopropylcarbamoylamino-4-chloro-3-methoxyisocoumarin]	2300	9000	–
COc1oc(=O)c2cc(NC(=O)C(NS(=O)(=O)c3ccc(C)cc3)c3ccccc3)ccc2c1Cl (stereo not drawn) [7-(N-tosyl-α-phenylglycyl)amino-4-chloro-3-methoxyisocoumarin]	1500	84000	–
COc1oc(=O)c2cc(NC(=O)OCC3c4ccccc4-c4ccccc43)ccc2c1Cl [7-Fmoc-NH-4-chloro-3-methoxyisocoumarin, 7-(9-fluorenylmethoxycarbonyl)amino-4-chloro-3-methoxyisocoumarin]	20	10000	–
COc1oc(=O)c2cc(NC(=O)C(F)(F)C(F)(F)C(F)(F)F)ccc2c1Cl [7-heptafluorobutyroylamino-4-chloro-3-methoxyisocoumarin]	–	–	kinact/KI ([1]; pH 7.5, read-out: kobs/[I]): 1100 M⁻¹ s⁻¹; kinact/KI ([2]; pH 7.5, read-out: kobs/[I]): 47000 M⁻¹ s⁻¹
CC(C)(C)OC(=O)N[C@@H](Cc1ccccc1)C(=O)Nc1ccc2c(Cl)c(OCCCBr)oc(=O)c2c1 [7-(N-t-butyloxycarbonyl-L-phenylalanyl)amino-4-chloro-3-(3-bromopropoxy)isocoumarin]	–	–	kinact/KI [2, 7]: 1320 M⁻¹ s⁻¹; kinact/KI (chymotrypsin; [4]): 490 M⁻¹ s⁻¹
COc1oc(=O)c2cc(NC(=O)NCC(C)C)ccc2c1Cl	3200	20000	–

Continued, in another order:

kinact/KI [1, 5] [M⁻¹ s⁻¹]	kinact/KI [2, 6] [M⁻¹ s⁻¹]	Structure (SMILES)	also measured
2800	54000	COC(=O)CCCC(=O)Nc1ccc2c(Cl)c(OC)oc(=O)c2c1 [7-methoxyglutarylamino-4-chloro-3-methoxyisocoumarin]	–
2100	–	COc1oc(=O)c2cc(NC(N)=O)ccc2c1Cl [7-H2 NCONH-4-chloro-3-methoxyisocoumarin, 7-carbamoylamino-4-chloro-3-methoxyisocoumarin]	–
4200	–	CCNC(=S)Nc1ccc2c(Cl)c(OCC)oc(=O)c2c1 [7-ethylthiocarbamoylamino-4-chloro-3-ethoxyisocoumarin]	–
3500	–	CCOC(=O)Nc1ccc2c(Cl)c(OCC)oc(=O)c2c1 [7-ethoxycarbonylamino-4-chloro-3-ethoxyisocoumarin]	–
7100	–	COC(=O)c1ccccc1C(=O)Nc1ccc2c(Cl)c(OC)oc(=O)c2c1 [7-(o-methoxyphthalyl)amino-4-chloro-3-methoxyisocoumarin]	–
7300	49000	COc1oc(=O)c2cc(NC(=O)Nc3ccccc3)ccc2c1Cl [7-PhNHCONH-4-chloro-3-methoxyisocoumarin, 7-phenylcarbamoylamino-4-chloro-3-methoxyisocoumarin]	–
260	71000	COc1oc(=O)c2cc(NC(=O)OCc3ccccc3)ccc2c1Cl [7-benzyloxycarbonylamino-4-chloro-3-methoxyisocoumarin]	–
2500	100000	COC(=O)Nc1cccc(C(=O)Nc2ccc3c(Cl)c(OC)oc(=O)c3c2)c1 [7-(m-methoxycarbonylaminobenzoyl)amino-4-chloro-3-methoxyisocoumarin]	–
17	12000	COc1oc(=O)c2cc(NC(=O)N(CCc3ccccc3)Cc3ccccc3)ccc2c1Cl [7-(N-benzyl-N-phenylethylcarbamoyl)amino-4-chloro-3-methoxyisocoumarin]	–

— patent publication US5324648A, “Substituted isocoumarins as serine protease inhibitors and anti-inflammatory agents” (Georgia Tech Research Corporation, priority 1992, dated 1994)
